Experimental data from patent publication US6458784B1, “Vitronectin receptor antagonists” (priority 1995, dated 2002).
pKi: −log10 of the molar value. Like-named read-outs stand apart in the source and are kept apart here.

Key:
[1] = molecular target: T1, αvβ3 (vitronectin receptor) (Homo sapiens, UniProt P05106+P06756); assay: Solid-phase [3H]-SK&F-107260 binding to αvβ3 (inhibition of vitronectin binding); details: for ratio* (enhanced binding to vitronectin receptor vs fibrinogen receptor = αIIbβ3/αVβ3): selectivity αIIbβ3/αVβ3
T1 construct: Human placenta or human platelet αvβ3 (0.1-0.3 mg/mL) in buffer T; from tissue; host or cells: human placenta or human platelets
T1 sequence (P06756 31-889 limits assumed): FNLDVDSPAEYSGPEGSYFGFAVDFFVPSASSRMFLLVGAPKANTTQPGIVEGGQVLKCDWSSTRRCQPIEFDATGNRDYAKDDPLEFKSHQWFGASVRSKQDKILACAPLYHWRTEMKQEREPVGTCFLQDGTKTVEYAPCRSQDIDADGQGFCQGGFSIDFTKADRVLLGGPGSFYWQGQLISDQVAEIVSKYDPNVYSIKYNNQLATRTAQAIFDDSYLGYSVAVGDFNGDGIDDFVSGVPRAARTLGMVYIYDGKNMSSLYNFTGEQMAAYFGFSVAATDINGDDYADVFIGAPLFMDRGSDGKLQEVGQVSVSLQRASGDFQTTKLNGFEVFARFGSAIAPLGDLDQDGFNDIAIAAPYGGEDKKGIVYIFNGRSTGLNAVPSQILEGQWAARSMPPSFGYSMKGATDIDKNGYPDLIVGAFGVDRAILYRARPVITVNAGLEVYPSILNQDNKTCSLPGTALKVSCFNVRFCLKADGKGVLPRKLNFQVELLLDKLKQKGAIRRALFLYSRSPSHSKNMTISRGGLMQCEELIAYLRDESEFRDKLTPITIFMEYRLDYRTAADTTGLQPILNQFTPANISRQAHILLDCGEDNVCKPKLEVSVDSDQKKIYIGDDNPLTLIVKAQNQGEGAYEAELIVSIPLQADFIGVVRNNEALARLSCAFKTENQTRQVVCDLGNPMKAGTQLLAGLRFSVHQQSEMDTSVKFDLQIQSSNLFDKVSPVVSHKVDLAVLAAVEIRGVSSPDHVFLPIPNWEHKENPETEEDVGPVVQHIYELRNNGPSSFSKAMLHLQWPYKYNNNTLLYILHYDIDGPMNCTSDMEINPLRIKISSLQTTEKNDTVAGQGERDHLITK
T1 sequence (P06756 891-1048 partner limits assumed): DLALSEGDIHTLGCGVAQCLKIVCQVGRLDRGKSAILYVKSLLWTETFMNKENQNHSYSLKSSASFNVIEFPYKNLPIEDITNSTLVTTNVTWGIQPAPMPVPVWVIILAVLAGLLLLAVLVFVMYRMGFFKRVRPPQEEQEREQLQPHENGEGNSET
T1 sequence (P05106 27-788): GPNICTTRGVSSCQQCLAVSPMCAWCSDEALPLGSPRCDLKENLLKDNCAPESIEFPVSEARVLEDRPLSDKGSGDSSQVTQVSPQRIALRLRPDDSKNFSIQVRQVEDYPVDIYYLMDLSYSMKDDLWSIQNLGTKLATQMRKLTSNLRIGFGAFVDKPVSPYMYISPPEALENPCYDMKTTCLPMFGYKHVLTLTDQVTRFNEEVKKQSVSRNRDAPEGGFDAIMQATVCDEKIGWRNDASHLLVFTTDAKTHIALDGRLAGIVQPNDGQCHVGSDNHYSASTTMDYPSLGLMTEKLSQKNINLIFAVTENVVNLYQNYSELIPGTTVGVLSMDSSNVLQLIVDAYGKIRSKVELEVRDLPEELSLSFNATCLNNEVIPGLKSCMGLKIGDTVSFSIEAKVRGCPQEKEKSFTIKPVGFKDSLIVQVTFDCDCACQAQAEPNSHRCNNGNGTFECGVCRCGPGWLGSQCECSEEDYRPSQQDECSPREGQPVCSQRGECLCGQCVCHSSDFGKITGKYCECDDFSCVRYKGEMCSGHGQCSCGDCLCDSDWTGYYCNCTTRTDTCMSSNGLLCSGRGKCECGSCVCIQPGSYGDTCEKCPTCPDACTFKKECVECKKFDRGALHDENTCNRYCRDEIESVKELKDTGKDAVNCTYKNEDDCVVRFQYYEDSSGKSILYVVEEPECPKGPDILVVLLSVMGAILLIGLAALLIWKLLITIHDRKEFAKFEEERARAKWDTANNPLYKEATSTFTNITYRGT
Protocol: Inhibition of Vitronectin Binding
0.1-0.2 μg of αvβ3 was added per well. The plates were incubated overnight at 4° C. […] Following incubation the wells were aspirated completely and washed twice with 0.2 mL buffer A.
This solution is then diluted to the required final compound concentration.
The plates were incubated for 1 hr at room temperature. Following incubation the wells were aspirated completely and washed once with 0.2 mL of ice cold buffer A in a well-to-well fashion.

[2] = molecular target: GPIIb-IIIa (fibrinogen receptor, αIIbβ3) (Homo sapiens, UniProt P05106+P08514); assay: Competitive binding to GPIIb-IIIa with [3H]-SK&F-107260 (inhibition of RGD-mediated GPIIb-IIIa binding)
Sequence of GPIIb-IIIa (fibrinogen receptor, αIIbβ3) (P08514 32-887 limits assumed): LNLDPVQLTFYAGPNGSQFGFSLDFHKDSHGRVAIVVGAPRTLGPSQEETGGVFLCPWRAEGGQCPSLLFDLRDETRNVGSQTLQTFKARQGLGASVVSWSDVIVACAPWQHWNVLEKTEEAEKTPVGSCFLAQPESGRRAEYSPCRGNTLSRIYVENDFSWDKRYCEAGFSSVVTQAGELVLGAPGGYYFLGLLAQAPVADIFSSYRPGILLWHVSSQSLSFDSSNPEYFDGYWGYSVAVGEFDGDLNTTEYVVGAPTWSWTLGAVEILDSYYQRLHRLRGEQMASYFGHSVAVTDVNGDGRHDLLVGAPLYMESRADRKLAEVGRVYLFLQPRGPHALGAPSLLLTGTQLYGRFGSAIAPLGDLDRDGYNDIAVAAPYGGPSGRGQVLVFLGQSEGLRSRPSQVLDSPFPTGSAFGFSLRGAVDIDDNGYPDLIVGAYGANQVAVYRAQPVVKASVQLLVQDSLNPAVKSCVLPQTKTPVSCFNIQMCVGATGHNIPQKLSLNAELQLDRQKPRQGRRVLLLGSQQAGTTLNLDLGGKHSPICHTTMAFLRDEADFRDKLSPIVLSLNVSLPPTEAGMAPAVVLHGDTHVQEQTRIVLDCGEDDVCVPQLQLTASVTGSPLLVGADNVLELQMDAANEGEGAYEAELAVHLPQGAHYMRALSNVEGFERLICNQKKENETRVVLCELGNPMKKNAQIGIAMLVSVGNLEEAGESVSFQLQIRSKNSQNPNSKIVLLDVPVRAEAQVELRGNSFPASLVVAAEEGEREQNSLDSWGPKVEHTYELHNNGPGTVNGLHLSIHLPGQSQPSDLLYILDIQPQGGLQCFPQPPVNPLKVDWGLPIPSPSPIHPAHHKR
Sequence of GPIIb-IIIa (fibrinogen receptor, αIIbβ3) (P08514 891-1039 partner limits assumed): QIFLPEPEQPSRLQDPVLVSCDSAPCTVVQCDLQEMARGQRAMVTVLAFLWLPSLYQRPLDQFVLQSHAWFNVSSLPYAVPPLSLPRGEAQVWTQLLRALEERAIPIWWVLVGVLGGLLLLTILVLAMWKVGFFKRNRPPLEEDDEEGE
Sequence of GPIIb-IIIa (fibrinogen receptor, αIIbβ3) (P05106 27-788): as the sequence (P05106 27-788) above
Protocol: Ten units of outdated, washed human platelets (obtained from Red Cross) were lyzed by gentle stirring in 3% octylglucoside, 20 mM Tris-HCl, pH 7.4, 140 mM NaCl, 2 mM CaCl2 at 4° C. for 2 h. The lysate was centrifuged at 100,000 g for 1 h. The supernatant obtained was applied to a 5 mL lentil lectin sepharose 4B column (E.Y. Labs) preequilibrated with 20 mM Tris-HCl, pH 7.4, 100 mM NaCl, 2 mM CaCl2, 1% octylglucoside (buffer A). After 2 h incubation, the column was washed with 50 mL cold buffer A. The lectin-retained GPIIb-IIIa was eluted with buffer A containing 10% dextrose. All procedures were performed at 4° C.
A mixture of phosphatidylserine (70%) and phosphatidylcholine (30%) (Avanti Polar Lipids) were dried to the walls of a glass tube under a stream of nitrogen. […] The mixture was resuspended and sonicated in a bath sonicator for 5 min.
The binding assay was performed in a 96-well filtration plate assembly. (Millipore Corporation, Bedford, Mass.) using 0.22 um hydrophilic durapore membranes. The wells were precoated with 0.2 mL of 10 μg/mL polylysine (Sigma Chemical Co., St. Louis, Mo.) at room temperature for 1 h to block nonspecific binding. Various concentrations of unlabeled benzadiazapines were added to the wells in quadruplicate. […] The mixtures were incubated for 1 h at room temperature. […] Bound radioactivity remaining on the filters was counted in 1.5 mL Ready Solve (Beckman Instruments, Fullerton, Calif.) in a Beckman Liquid Scintillation Counter (Model LS6800), with 40% efficiency. […] All data points are the mean of quadruplicate determinations.
Competition binding data were analyzed by a nonlinear least-squares curve fitting procedure.

| Structure (SMILES) | pKi ([1]; read-out: αVβ3) | ratio* (enhanced binding to vitronectin receptor vs fibrinogen receptor = αIIbβ3/αVβ3) [1] | pKi [2] | pKi [1] | pKi ([1]; displacement of 5.0 nM [3H]-SK&F-107260 from human placenta or platelet αvβ3, table does not say whether IC50 or Ki, method derives Ki, read-out: αVβ3) |
| --- | --- | --- | --- | --- | --- |
| CN1Cc2cc(NC(=O)CNc3ccccn3)ccc2CC(CC(=O)O)C1=O (racemic) [Example 18, (±)-8-[[(2-(2-pyridinylamino)acetyl]amino]-2-methyl-3-oxo-2,3,4,5-tetrahydro-1H-2-benzazepine-4-acetic acid] | 5.89 | 23 | 4.52 |  |  |
| CN1Cc2cc(C(=O)N3CCN(c4ncccn4)CC3)ccc2NC(CC(=O)O)C1=O (racemic) [Example 14, (±)-4-methyl-3-oxo-7-[1-[4-(2-pyrmidinyl)piperazinyl]carbonyl]-2,3,4,5-tetrahydro-1H-1,4-benzodiazepine-2-acetic acid] | 5.21 | >8 | < 4.30 |  |  |
| CN1Cc2cc(NC(=O)OCc3ccccc3)ccc2CC(CC(=O)O)C1=O (racemic) [Example 6, (±)-8-[(benzyloxycarbonyl)amino]-2-methyl-3-oxo-2,3,4,5-tetrahydro-1H-2-benzazepine-4-acetic acid] | 5.12 | 2.3 | 4.76 |  |  |
| CN1Cc2cc(C(=O)N3CCNCC3)ccc2NC(CC(=O)O)C1=O (racemic) [Example 10, (±)-4-methyl-3-oxo-7-[(1-piperazinyl)carbonyl]-2,3,4,5-tetrahydro-1H-1,4-benzodiazepine-2-acetic acid] | 5.96 | >1.9 | 5.67 |  |  |
| CN(CCO)C(=O)c1ccc2c(c1)CN(C)C(=O)C(CC(=O)O)N2 (racemic) [Example 17, (±)-7-[[[N-(2-hydroxyethyl)-N-methyl]amino]carbonyl]-4-methyl-3-oxo-2,3,4,5-tetrahydro-1H-1,4-benzodiazepine-2-acetic acid] | 4.82 | >3 | < 4.30 |  |  |
| CN1Cc2cc(C(=O)N3CCC(N4CCCCC4)CC3)ccc2NC(CC(=O)O)C1=O (racemic) [Example 11, (±)-4-methyl-3-oxo-7-[1-[4-(1-piperidinyl)piperidinyl]carbonyl]-2,3,4,5-tetrahydro-1H-1,4-benzodiazepine-2-acetic acid] | 5.84 | 14 | 4.70 |  |  |
| CN1Cc2cc(NC(=O)c3ccccn3)ccc2CC(CC(=O)O)C1=O (racemic) [Example 5, (±)-2-methyl-3-oxo-8-[[2-(pyridinyl)carbonyl]amino]-2,3,4,5-tetrahydro-1H-2-benzazepine-4-acetic acid] | 4.82 | >3 | < 4.30 |  |  |
| CN1Cc2cc(C(=O)N3CCN(Cc4ccccc4)CC3)ccc2NC(CC(=O)O)C1=O (racemic) [Example 13, (±)-4-methyl-3-oxo-7-[1-[4-(phenylmethyl)piperazinyl]carbonyl]2,3,4,5-tetrahydro-1H-1,4-benzodiazepine-2-acetic acid] | 5.02 | 1.62 | 4.81 |  |  |
| CN1Cc2cc(C(=O)NCc3cccnc3)ccc2NC(CC(=O)O)C1=O (racemic) [Example 22, (±)-4-methyl-3-oxo-7-[[[(3-pyridinyl)methyl]amino]carbonyl]-2,3,4,5-tetrahydro-1H-1,4-benzodiazepine-2-acetic acid] |  | 3 | 4.57 | 5.04 |  |
| CN1Cc2cc(NC(=O)[C@@H](N)Cc3ccccc3)ccc2CC(CC(=O)O)C1=O (mixture of isomers) [Example 15, 8-[[2S-amino-3-phenylpropanoyl]amino]-2-methyl-3-oxo-2,3,4,5-tetrahydro-1H-2-benzazepine-4RS-acetic acid] | 5.41 | 9.6 | 4.43 |  |  |
| Nc1ccc(NC(=O)c2ccc3c(c2)CN(CCc2ccccc2)C(=O)C(CC(=O)O)N3)cn1 (racemic) [Example 3, (±)-7-[[(6-amino-3-pyridinyl)amino]carbonyl]-3-oxo-4-(2-phenylethyl)-2,3,4,5-tetrahydro-1H-1,4-benzodiazepine-2-acetic acid] | 5.04 | 12 | 3.96 |  |  |
| CN1Cc2cc(C(=O)N3CCN(c4ccccc4)CC3)ccc2NC(CC(=O)O)C1=O (racemic) [Example 9, (±)-4-methyl-3-oxo-7-[1-(4-phenylpiperazinyl)carbonyl]-2,3,4,5-tetrahydro-1H-1,4-benzodiazepine-2-acetic acid] |  | >11 | < 4.00 |  | 5.03 |
| CN1Cc2cc(C(=O)Nc3cccc(C(N)=O)c3)ccc2NC(CC(=O)O)C1=O (racemic) [Example 8, (±)-7-[[[3-(aminocarbonyl)phenyl]amino]carbonyl]-4-methyl-3-oxo-2,3,4,5-tetrahydro-1H-1,4-benzodiazepine-2-acetic acid] | 4.91 | >4 | < 4.30 |  |  |
| CN1Cc2cc(NC(=O)CCN)ccc2CC(CC(=O)O)C1=O (racemic) [Example 21, (+/±)-8-[(3-aminopropanoyl)amino]-2-methyl-3-oxo-2,3,4,5-tetrahydro-1H-2-benzazepine-4-acetic acid] | 6.07 | 61 | 4.28 |  |  |
| CN(CC(O)c1ccccc1)C(=O)c1ccc2c(c1)CN(C)C(=O)C(CC(=O)O)C2 (racemic) [Example 16, (±)-8-[[[(2-hydroxy-2-phenyl)ethyl]methylamino]carbonyl]-2-methyl-3-oxo-2,3,4,5-tetrahydro-1H-2-benzazepine-4-acetic acid] | 5.02 | 2.9 | 4.55 |  |  |
| CN1Cc2cc(NC(=O)CN)ccc2CC(CC(=O)O)C1=O (racemic) [Example 20, (±)-8-[(2-aminoacetyl)amino]-2-methyl-3-oxo-2,3,4,5-tetrahydro-1h-2-benzazepine-4-acetic acid] | 5.81 | 29 | 4.35 |  |  |
